The text below walks through data of patent US10988474B2, “Compounds acting at multiple prostaglandin receptors giving a general anti-inflammatory response” (ALLERGAN, INC., priority 2011, dated 2021).

Bounds are passed on as bounds.

What all share (format): cell-based
Assay [1] deals with T1, human prostanoid EP1 receptor (Homo sapiens, UniProt P34995).
T1 construct: expressed in transfected cells
T1 sequence (P34995 1-402): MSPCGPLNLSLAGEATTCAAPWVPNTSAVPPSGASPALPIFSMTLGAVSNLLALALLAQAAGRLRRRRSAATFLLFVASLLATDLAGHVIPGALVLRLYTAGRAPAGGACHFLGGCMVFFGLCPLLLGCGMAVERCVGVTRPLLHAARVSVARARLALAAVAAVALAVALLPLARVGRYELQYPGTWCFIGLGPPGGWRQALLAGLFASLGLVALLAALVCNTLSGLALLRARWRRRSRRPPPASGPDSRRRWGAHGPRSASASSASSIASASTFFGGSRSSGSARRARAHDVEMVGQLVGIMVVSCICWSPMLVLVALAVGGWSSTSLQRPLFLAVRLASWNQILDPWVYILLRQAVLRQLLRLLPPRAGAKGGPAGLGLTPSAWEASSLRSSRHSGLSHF
The assay can be described thus: FLIPR Ca2+ signaling PG antagonist assay, EP1 stable cell line. Conditions: HEK-293 EBNA cells, human recombinant EP1, no exogenous G-protein; standard agonist PGE2. As for the experimental part: (§1) The above compounds were tested for PG antagonist activity as follows using human recombinant prostanoid receptor (DP1, EP1-4, FP, IP and TP) stable cell lines: In order to measure the response of Gs and Gi coupled prostanoid receptors as a Ca^2+ signal, chimeric G protein cDNAs were used. Stable cell lines over-expressing human prostanoid DP1, EP1-4, FP, IP, and TP receptors were established as follows:
(§2) Briefly, human prostanoid DP1, EP2, and EP4 receptor cDNAs were co-transfected with chimeric Gqs cDNA containing a haemagglutanin (HA) epitope; human prostanoid EP3 receptors were co-transfected with chimeric Gqi-HA; human EP1, FP, IP, and TP receptor cDNAs were expressed with no exogenous G-proteins. Gqs and Gqi chimeric cDNAs (Molecular Devices, Sunnyvale, Calif., U.S.A.), as well as cDNAs of prostanoid receptors, were cloned into a pCEP4 vector with a hygromycin B selection marker. Transfection into HEK-293 EBNA (Epstein-Barr virus nuclear antigen) cells was achieved by the FuGENE 6 transfection Reagent (Roche Applied Science, Indianapolis, Ind., USA). Stable transfectants were selected according to hygromycin resistance. Because Gqs and Gqi contained an HA epitope, G-protein expression was detected by Western blotting analysis using anti-mouse HA monoclonal antibody and horseradish peroxidase (HRP)-conjugated secondary antibody, while functional expression of prostanoid receptors was detected by FLIPR screening (Matias et al., 2004). These stable cell lines were validated using previously published antagonists at 10 μM against serial dilutions of standard agonists by FLIPR functional assays for Ca^2+ Signaling (as described below).
(§3) Ca^2+ signaling studies were performed using a FLIPR TETRA system (Molecular Devices, Sunnyvale, Calif., USA) in the 384-format. This is a high-throughput instrument for cell-based assays to monitor Ca^2+ signaling associated with GPCRs and ion channels. Cells were seeded at a density of 5×10^4 cells/well in BioCoat poly-D-lysine coated, black wall, clear bottom 384-well plates (BD Biosciences, Franklin lakes, NJ, USA) and allowed to attach overnight in an incubator at 37° C. The cells were then washed twice with HBSS-HEPES buffer (Hanks' balanced salt solution without bicarbonate and phenol red, 20 mM HEPES, pH 7.4) using an ELx405 Select CW Microplate Washer (BioTek, Winooski, Vt., USA). After 60 min of dye-loading in the dark using the Ca^2+-sensitive dye Fluo-4AM (Invitrogen, Carlsbad, Calif., USA), at a final concentration of 2×10^−6M, the plates were washed 4 times with HBSS-HEPES buffer to remove excess dye and leaving 50 μl of buffer in each well. The plates were then placed in the FLIPR TETRA instrument and allowed to equilibrate at 37° C. Compounds were added in a 25 μl volume to each well to give final concentrations of 0.1 μM, 0.3 μM, 1 μM, 3 μM, 10 μM, and 30 μM; or 0.067 μM, 0.1 μM, 0.2 μM, 0.3 μM, 0.67 μM, and 1 μM for cells over-expressing TP receptors. After 4.5 minutes, a 7-point serial dilution of the standard agonist for the corresponding receptor, in a 25 μl volume was injected at the final concentrations from 10^−11M to 10^−5M in 10-fold serial dilution increments for cells expressing human recombinant DP1, EP1, EP2, EP3, EP4, FP, and IP receptors. The dose range for the standard agonist for human recombinant TP receptors was from 10^−12M to 10^−6M. HBSS-HEPES buffer was used as the negative control for the standard agonists. Cells were excited with LED (light emitting diode) excitation at 470-495 nm and emission was measured through an emission filter at 515-575 nm. Assay plates were read for 3.5 minutes using the FLIPR^TETRA. The peak increase in fluorescence intensity was recorded for each well. On each plate, negative controls, dose response of positive controls, and co-treatments of antagonist-agonist for each dose were in triplicates. Standard agonists were as follows: DP=BW 245C, EP1-EP4=PGE2, FP=17-phenyl-PGF2α, IP=Cicaprost, and TP=U-46619. […]

Assay [2] has as its target T2, human prostanoid EP4 receptor (Homo sapiens, UniProt P35408).
T2 construct: expressed in transfected cells
The experiment in a line: FLIPR Ca2+ signaling PG antagonist assay, EP4 stable cell line. Conditions: HEK-293 EBNA cells, human recombinant EP4 with chimeric Gqs; standard agonist PGE2. As for the experimental part:
as §1, §2, §3

Assay [3] concerns the target T3, human prostanoid EP3 receptor (Homo sapiens, UniProt P43115).
T3 construct: expressed in transfected cells
T3 sequence (P43115 1-390): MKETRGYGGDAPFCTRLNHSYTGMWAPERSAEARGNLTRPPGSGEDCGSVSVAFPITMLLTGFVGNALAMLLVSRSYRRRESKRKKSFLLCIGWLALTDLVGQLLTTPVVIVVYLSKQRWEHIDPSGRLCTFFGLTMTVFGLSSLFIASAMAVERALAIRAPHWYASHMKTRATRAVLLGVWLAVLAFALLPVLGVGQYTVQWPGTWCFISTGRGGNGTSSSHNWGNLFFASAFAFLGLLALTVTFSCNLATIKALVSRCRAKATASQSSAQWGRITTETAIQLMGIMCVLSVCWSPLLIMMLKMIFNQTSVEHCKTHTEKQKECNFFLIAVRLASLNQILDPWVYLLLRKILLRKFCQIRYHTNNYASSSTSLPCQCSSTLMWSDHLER
The experiment in a line: FLIPR Ca2+ signaling PG antagonist assay, EP3 stable cell line. Conditions: HEK-293 EBNA cells, human recombinant EP3 with chimeric Gqi; standard agonist PGE2. As for the experimental part: as §1, §2, §3

Assay [4] has as its target T4, human prostanoid EP2 receptor (Homo sapiens, UniProt P43116).
T4 construct: expressed in transfected cells
The assay can be described thus: FLIPR Ca2+ signaling PG antagonist assay, EP2 stable cell line. Conditions: HEK-293 EBNA cells, human recombinant EP2 with chimeric Gqs; standard agonist PGE2. As for the experimental part:
as §1, §2, §3

Assay [5] addresses T5, human prostanoid IP receptor (Homo sapiens, UniProt P43119).
T5 construct: expressed in transfected cells
The experiment in a line: FLIPR Ca2+ signaling PG antagonist assay, IP stable cell line. Conditions: HEK-293 EBNA cells, human recombinant IP, no exogenous G-protein; standard agonist Cicaprost. The procedure, abridged:
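HEK-293 EBNA stable lines; EP2 co-expressed with chimeric Gqs, EP1/IP/TP with no exogenous G protein. Fluo-4AM-loaded cells pretreated 4.5 min at 37 °C with compound (0.1–30 μM; TP 0.067–1 μM), then standard agonist (PGE2, cicaprost, U-46619) 10^−11–10^−5 M (TP 10^−12–10^−6 M); peak fluorescence read 3.5 min, nonlinear regression.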

T4 sequence (P43116 whole entry): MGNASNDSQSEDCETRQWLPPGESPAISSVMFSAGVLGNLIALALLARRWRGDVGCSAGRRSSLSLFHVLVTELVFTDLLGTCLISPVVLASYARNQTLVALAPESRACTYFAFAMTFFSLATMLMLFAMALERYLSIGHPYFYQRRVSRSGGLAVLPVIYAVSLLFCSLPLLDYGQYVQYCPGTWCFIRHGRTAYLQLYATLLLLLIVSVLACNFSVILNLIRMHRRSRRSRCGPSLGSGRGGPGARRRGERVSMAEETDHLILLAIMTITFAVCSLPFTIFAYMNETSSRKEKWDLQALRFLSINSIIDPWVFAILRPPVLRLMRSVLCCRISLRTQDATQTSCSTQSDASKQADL
T5 sequence (P43119 whole entry): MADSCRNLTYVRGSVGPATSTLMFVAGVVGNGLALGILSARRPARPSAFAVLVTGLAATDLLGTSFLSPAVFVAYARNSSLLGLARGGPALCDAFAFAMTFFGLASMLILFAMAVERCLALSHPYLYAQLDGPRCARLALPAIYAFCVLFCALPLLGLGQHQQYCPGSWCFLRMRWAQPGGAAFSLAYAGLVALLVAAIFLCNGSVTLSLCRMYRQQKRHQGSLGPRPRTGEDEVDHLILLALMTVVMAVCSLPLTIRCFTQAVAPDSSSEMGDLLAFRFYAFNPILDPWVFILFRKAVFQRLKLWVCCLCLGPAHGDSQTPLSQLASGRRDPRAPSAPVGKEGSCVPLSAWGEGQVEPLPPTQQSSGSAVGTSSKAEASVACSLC
T2 sequence (P35408 whole entry): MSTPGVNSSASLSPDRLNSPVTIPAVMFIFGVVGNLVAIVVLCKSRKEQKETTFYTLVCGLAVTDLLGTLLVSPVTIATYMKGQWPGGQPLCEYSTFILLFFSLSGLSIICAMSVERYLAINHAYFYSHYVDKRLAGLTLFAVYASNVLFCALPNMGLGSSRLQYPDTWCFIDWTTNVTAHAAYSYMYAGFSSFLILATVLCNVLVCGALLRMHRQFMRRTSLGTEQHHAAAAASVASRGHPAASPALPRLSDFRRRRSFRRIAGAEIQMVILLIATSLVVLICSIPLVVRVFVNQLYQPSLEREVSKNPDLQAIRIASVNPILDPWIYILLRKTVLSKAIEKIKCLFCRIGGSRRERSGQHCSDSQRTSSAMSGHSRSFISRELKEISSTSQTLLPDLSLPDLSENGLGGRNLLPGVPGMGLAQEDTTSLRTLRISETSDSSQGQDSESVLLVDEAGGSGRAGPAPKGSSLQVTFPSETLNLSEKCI

For `O=C(O)c1ccc2c(cnn2Cc2cc(C(F)(F)F)ccc2OCc2ccc(Cl)cc2)c1` [Example 32, 1-[2-(4-Chloro-Benzyloxy)-5-Trifluoromethyl-Benzyl]-1H-Indazole-5-Carboxylic Acid], the antagonist equilibrium constant (Kb) was 0.21 µM in assay [1]; 5 µM in assay [2]; at least 10 µM in assay [3]; at least 10 µM in assay [4]; 7.4 µM in assay [5].
Take `O=C(O)c1ccc2c(cnn2Cc2cc(C(F)(F)F)ccc2OCC2CCCC2)c1` [Example 33, 1-(2-Cyclopentylmethoxy-5-Trifluoromethyl-Benzyl)-1H-Indazole-5-Carboxylic Acid]: the Kb in assay [1] amounted to 0.07 µM; in assay [2] it was 0.03 µM; in assay [3], 1.4 µM; in assay [4], 2.6 µM; in assay [5], 0.4 µM.
The like results for `O=C(O)c1cccc2c1cnn2Cc1cc(Cl)ccc1OCC1CC1` [Example 34, 1-(5-Chloro-2-Cyclopropylmethoxy-Benzyl)-1H-Indazole-4-Carboxylic Acid] were, in that order, 0.07 µM, at least 10 µM, at least 10 µM, at least 10 µM and at least 10 µM.
For `O=C(O)c1cccc2nn(Cc3cc(Cl)ccc3OCC3CC3)cc12` [Example 35, 2-(5-Chloro-2-Cyclopropylmethoxy-Benzyl)-2H-Indazole-4-Carboxylic Acid], in that order: 4.2 µM, 0.67 µM, at least 10 µM, at least 10 µM and at least 10 µM.
The like results for `CC(C)COc1ccc(Cl)cc1Cn1ncc2c(C(=O)O)cccc21` [Example 36, 1-(5-Chloro-2-Isobutoxy-Benzyl)-1H-Indazole-4-Carboxylic Acid] were, in that order, 0.06 µM, 1.2 µM, 4 µM, 2.9 µM and 0.2 µM.
In the case of `CC(C)COc1ccc(Cl)cc1Cn1cc2c(C(=O)O)cccc2n1` [Example 37, 2-(5-Chloro-2-Isobutoxy-Benzyl)-2H-Indazole-4-Carboxylic Acid], the antagonist dissociation constant (Kb) in assay [1] is 0.48 µM; in assay [2] it was 0.7 µM; in assay [3] it was 3.4 µM; in assay [4], at least 10 µM; in assay [5], at least 10 µM.
Take `CCC(CC)COc1ccc(Cl)cc1Cn1ncc2c(C(=O)O)cccc21` [Example 38, 1-[5-Chloro-2-(2-Ethyl-Butoxy)-Benzyl]-1H-Indazole-4-Carboxylic Acid]: the antagonist equilibrium constant (Kb) in assay [1] is 0.07 µM; in assay [2] it was 0.4 µM; in assay [3], 1.7 µM; in assay [4], 2.1 µM; in assay [5] it was 0.06 µM.
For `CCC(CC)COc1ccc(Cl)cc1Cn1cc2c(C(=O)O)cccc2n1` [Example 39, 2-[5-Chloro-2-(2-Ethyl-Butoxy)-Benzyl]-2H-Indazole-4-Carboxylic Acid], in that order: 1.2 µM, 1.6 µM, 5.5 µM, at least 10 µM and 4.9 µM.
`O=C(O)c1cccc2c1cnn2Cc1cc(Cl)ccc1OCc1ccc(Cl)cc1` [Example 40, 1-[5-Chloro-2-(4-Chloro-Benzyloxy)-Benzyl]-1H-Indazole-4-Carboxylic Acid]: the antagonist dissociation constant (Kb) in assay [1] is 0.06 µM; in assay [2], 2.5 µM; in assay [3] it was at least 12 µM; in assay [4], 0.9 µM. For the same compound, the “IP (Kb, PG antagonist activity)” value in assay [5] is reported as “PAg”.
On to `O=C(O)c1cccc2nn(Cc3cc(Cl)ccc3OCc3ccc(Cl)cc3)cc12` [Example 41, 2-[5-Chloro-2-(4-Chloro-Benzyloxy)-Benzyl]-2H-Indazole-4-Carboxylic Acid], for which the antagonist equilibrium constant (Kb) was at least 10 µM in assay [1]; at least 10 µM in assay [2]; at least 10 µM in assay [3]; at least 10 µM in assay [4]; 9.8 µM in assay [5].
Take `CC(C)COc1ccc(Br)cc1Cn1ncc2ccc(C(=O)O)cc21` [Example 42, 1-(5-Bromo-2-Isobutoxy-Benzyl)-1H-Indazole-6-Carboxylic Acid]: the antagonist dissociation constant (Kb) was 0.024 µM in assay [1]; 1.8 µM in assay [2]; 1.9 µM in assay [3]; at least 10 µM in assay [4]; 3.4 µM in assay [5].
Turning to `O=C(O)c1ccc2cnn(Cc3cc(Br)ccc3OCC3CCCC3)c2c1` [Example 44, 1-(5-Bromo-2-Cyclopentylmethoxy-Benzyl)-1H-Indazole-6-Carboxylic Acid], the antagonist equilibrium constant (Kb) in assay [1] is 0.24 µM; in assay [2], 3.2 µM; in assay [3], 1.6 µM; in assay [4] it was at least 10 µM. Further, in assay [5], the “IP (Kb, PG antagonist activity)” value is listed as “PAg”.
For the compound `O=C(O)c1ccc2cn(Cc3cc(Br)ccc3OCC3CCCC3)nc2c1` [Example 45, 2-(5-Bromo-2-Cyclopentylmethoxy-Benzyl)-2H-Indazole-6-Carboxylic Acid], the Kb in assay [1] was 0.023 µM; in assay [2] it was 2 µM; in assay [3], at least 10 µM; in assay [4], at least 10 µM; in assay [5], 7 µM.
`CCC(CC)COc1ccc(Cl)cc1Cn1ncc2ccc(C(=O)O)cc21` [Example 46, 1-[5-Chloro-2-(2-Ethyl-Butoxy)-Benzyl]-1H-Indazole-6-Carboxylic Acid]: the antagonist dissociation constant (Kb) in assay [1] is 7.1 µM; in assay [2], at least 10 µM; in assay [3], at least 10 µM; in assay [4] it was at least 10 µM; in assay [5], at least 10 µM.

The Kb is the equilibrium dissociation constant of an antagonist, usually derived from a functional assay.
